The numbers were not newly measured in patent US7989405B2, “Prevention of microbial growth in metal working fluids” (Illinois Tool Works Inc., priority 2001, dated 2011), which cites them from elsewhere.

One data set has as its system Enterobacter aerogenes. The settings on record: Bacterial: Enterobacter aerogenes.
For a further data set, the system named is Pseudomonas aeruginosa. The settings on record: Bacterial: Pseudomonas aeruginosa.
Another data set deals with Staphylococcus aureus. The settings on record: Bacterial: Staphylococcus aureus.
Another data set deals with Saccharomyces cerevisiae. The settings on record: Fungal: Saccharomyces cerevisiae.
For the next data set, the system named is Aspergillus niger. The conditions noted are these: Fungal: Aspergillus niger.
In a further data set the test system is Escherischia coli. The conditions noted are these: Bacterial: Escherischia coli.
For another data set, the system named is Fusarium moniliforme. The conditions noted are these: Fungal: Fusarium moniliforme.

Take `CCC12COCN1COC2` [Bioban CS-1246, 7a-ethyldihydro-1H,3H,5H-oxazolo(3,4-c)oxazole]: the MIC with Enterobacter aerogenes was 250-300 parts per million; in the data set with Pseudomonas aeruginosa it was 800-850 parts per million; with Staphylococcus aureus it was 200-250 parts per million; in the data set with Saccharomyces cerevisiae, 16-33 parts per million; with Aspergillus niger, 65-125 parts per million; with Escherischia coli it was 450-500 parts per million. In addition, the MIC in the data set with Fusarium moniliforme is given as 125-250 parts per million. Also, the “irritation of eyes and skin” value (as supplied) was “irritating to eyes and skin”. In addition, the mutagenicity result (as supplied) was “non-mutagenic”. For the same molecule, the sensitisation result (as supplied) is “not a sensitising agent”. The “toxicity by inhalation and skin contact” value (as supplied) is “harmful by inhalation and in contact with the skin”. For the same molecule, for the setting “at typical use dilutions”, the hazard entry was “no hazard”.
